Data as given in US10253011B1, “Lubiprostone crystals and methods for preparing the same” (CHIROGATE INTERNATIONAL INC., priority 2018, dated 2019).

Key:
Assay type in all cases: physicochemical
[1] = Storage stability of Lubiprostone crystal V (crystalline form and degradation to impurity A); details: six months of storage at about −20° C.
[2] = Crystal form stability of Lubiprostone crystal V in the third solvent used for seeded crystallization
[3] = Crystal form transformation of Lubiprostone crystal V stirred in isopropyl acetate/heptane, XRPD; details: stirred in isopropyl acetate (0.16 ml)/heptane (0.84 ml) at 20° C., within two hours
Experimental: X-ray Powder Diffraction (XRPD) Analysis: The XRPD patterns were collected on a Bruker D2 PHASER diffractometer with fixed divergence slits and 1D LYNXEYE detector. The samples (ca. 100 mg) were flatly placed on a sample holder. The prepared samples were analyzed over a 2θ range from 5° to 50° with step size of 0.02 degrees and step time of 1 second using CuKα radiation at a power of 10 mA and 30 kV. The CuKβ radiation was removed by a divergent beam nickel filter.
Lubiprostone crystal V (0.20 g, from Example 9) was added to a mixture of isopropyl acetate (0.16 ml) and heptane (0.84 ml)(i.e., the solvent system for crystallization of US 2010/056808), and the mixture was stirred at 20° C. for 2 hours. The resulting suspension was filtered and rinsed, and then dried under high vacuum at room temperature to give Lubiprostone crystal I. The XRPD results are shown in FIGS. 12(a) and 12(b).
Therefore, the Lubiprostone crystal V is a novel crystalline form of Lubiprostone, and the crystalline form shown in FIG. 2 found in the unit cell of Lubiprostone crystal II by optical microscope is an enantiomorph of Lubiprostone, rather than Lubiprostone crystal V.

In the case of `CCCCC(F)(F)[C@@]1(O)CC[C@H]2[C@@H](CC(=O)[C@@H]2CCCCCCC(=O)O)O1` [Lubiprostone crystal V, Lubiprostone], the “stability on storage (other crystalline forms, degraded products of impurity A)” value [1] is reported as “good stability”, the “conversion of crystalline form to Lubiprostone crystal I” value ([2]; esters such as isopropyl acetate as third solvent) is reported as “rapidly converted” and the “stability of crystal form against conversion to Lubiprostone crystal I” value ([2]; o-xylene, m-xylene, ethyl ether, isopropyl ether or methyl tert-butyl ether as third solvent) is reported as “very stable”. For the same molecule, the “conversion of crystalline form to Lubiprostone crystal I (XRPD)” value [3] was “completely converted”.
